Target: T1, human glutathione reductase (hGR) (Homo sapiens, UniProt P00390)
T1 sequence (P00390 44-522): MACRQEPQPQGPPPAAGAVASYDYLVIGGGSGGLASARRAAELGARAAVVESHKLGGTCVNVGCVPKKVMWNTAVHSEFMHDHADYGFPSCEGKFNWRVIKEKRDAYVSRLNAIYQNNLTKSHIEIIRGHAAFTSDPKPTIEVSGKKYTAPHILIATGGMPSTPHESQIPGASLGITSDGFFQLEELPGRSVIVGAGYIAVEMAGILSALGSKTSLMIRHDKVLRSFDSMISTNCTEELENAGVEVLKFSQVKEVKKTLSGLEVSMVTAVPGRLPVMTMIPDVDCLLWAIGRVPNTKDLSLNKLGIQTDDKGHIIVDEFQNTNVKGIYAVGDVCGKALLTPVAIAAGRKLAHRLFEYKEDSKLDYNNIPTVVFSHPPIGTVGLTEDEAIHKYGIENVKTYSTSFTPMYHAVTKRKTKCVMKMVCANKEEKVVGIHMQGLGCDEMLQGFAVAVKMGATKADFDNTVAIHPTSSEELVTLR
Assay: Human glutathione reductase inhibition
Assay type: biochemical
Conditions: GR IC50/TR IC50

Question: With `CC(C)(C)c1cc(CN2CCCCCC2)cc(C(C)(C)C)c1O` [Compound 7c] as the compound, how does the “Selectivity for TR” value read?
Answer: >4
